Like-named read-outs stand apart in the source and are kept apart here. Each block holds one compound with its values, some of them ahead of it. Positions of bridges follow the written chain, without caps; N, C: chain ends. Non-standard residues stand in square brackets, D forms with d. Residues, ends and D or L forms follow the SMILES beside them. Primed or numbered codes have the meaning given here. No end group written: not given here. FITC′ = not defined here; PEG4′ = not defined here
What was measured:
Hep3B cells [1] = test: Affinity of RD/RD2 to Hep3B cells (no integrin α6 expression) by flow cytometry; type: cell-based, human; details: FITC probes, 37° C., 2 hours
Protocol: (§1) The expression of integrin α6 and β4 in human hepatoma cells HCCLM3, human hepatoma cells Huh-7, human hepatoma cells Hep3B, human nasopharyngeal carcinoma cells S18 and human breast cancer cells MDA-MB-231 were detected by flow cytometry. […] Integrin β4 is expressed in HCCLM3, S18 and MDA-MB-231 cells (FIG. 3F, FIG. 3G, FIG. 3I, FIG. 3J). […] Each cell had 3 duplicate wells. • 2) 2 μl of 1 mM RWYD-PEG4-K-FITC (structural formula shown in FIG. 1B, referred to as RD) or CRWYDENAC-PEG4-K-FITC (referred to as RWY) was added into cells, mixed well, and incubate in an incubator at 37° C. for 2 hours. • 3) The culture medium containing polypeptides was absorbed and removed, the cells were washed with PBS for 3 times, 500 μl/time. • 4) The cells were digested with trypsin, resuspended with medium and centrifuged at 300 g for 5 minutes. • 5) The supernatant was discarded and cell precipitation was preserved, and the cells were resuspended with 500 μl saline and placed into the flow tube. • 6) The FITC channel was detected by flow machine and the results were analyzed by CytExpert.
(§2) RWYD-PEG4 forms dimers or polyploids via lysine (K) ligations. Flow cytometry was used to detect expression of integrin α6 in tumor cells. […] The specific operation of affinity assay of tumor cells to RD2 is similar to that of “affinity assay of tumor cells to RD”.

[2] = tested on: tumor cells with high integrin α6 expression (HCCLM3, Huh-7, S18, MDA-MB-231; also HT29, KYSE30, SW620, SW1990 for RD2); test: Affinity of RD/RD2 to tumor cells with high integrin α6 expression by flow cytometry; type: cell-based, human; details: FITC probes, 37° C., 2 hours
Protocol: as §1, §2

[3] = tested on: tumor cells with high integrin α6 expression; test: Flow cytometry affinity assay to tumor cells with high integrin α6 expression; type: cell-based, human
Protocol: as §1, §2

[4] = tested on: Hep3B subcutaneous tumors without expression of integrin α6; test: Near infrared imaging, Hep3B subcutaneous tumors; type: in vivo, mice
[5] = tested on: HCCLM3 subcutaneous tumors with high integrin α6 expression; test: Near infrared imaging in HCCLM3 subcutaneous tumor bearing mice; type: in vivo; details: 2 μl of 1 mM, tail vein, 24 hours
Protocol: (§3) In the near infrared imaging of small animals, a 2 μl of 1 mM fluorescent probe RWYD-PEG4-K(ICG)-K(NOTA) (structural formula shown in FIG. 1C) was injected into the tail vein of HCCLM3 subcutaneous tumor bearing mice. After 24 hours of internal circulation, the distribution in the subcutaneous tumor bearing mice was observed.

Hep3B cells [6] = test: Flow cytometry affinity assay to Hep3B cells that do not express integrin α6; type: cell-based, human; details: FITC flow cytometry; Hep3B does not express integrin α6
Protocol: as §1, §2

integrin α6β4 [7] = target: T1, integrin α6β4 (Homo sapiens, UniProt P23229); test: Affinity between polypeptide mutants and integrin α6β4 by microscale thermophoresis (MST); type: binding
T1 sequence (P23229 24-938 limits assumed): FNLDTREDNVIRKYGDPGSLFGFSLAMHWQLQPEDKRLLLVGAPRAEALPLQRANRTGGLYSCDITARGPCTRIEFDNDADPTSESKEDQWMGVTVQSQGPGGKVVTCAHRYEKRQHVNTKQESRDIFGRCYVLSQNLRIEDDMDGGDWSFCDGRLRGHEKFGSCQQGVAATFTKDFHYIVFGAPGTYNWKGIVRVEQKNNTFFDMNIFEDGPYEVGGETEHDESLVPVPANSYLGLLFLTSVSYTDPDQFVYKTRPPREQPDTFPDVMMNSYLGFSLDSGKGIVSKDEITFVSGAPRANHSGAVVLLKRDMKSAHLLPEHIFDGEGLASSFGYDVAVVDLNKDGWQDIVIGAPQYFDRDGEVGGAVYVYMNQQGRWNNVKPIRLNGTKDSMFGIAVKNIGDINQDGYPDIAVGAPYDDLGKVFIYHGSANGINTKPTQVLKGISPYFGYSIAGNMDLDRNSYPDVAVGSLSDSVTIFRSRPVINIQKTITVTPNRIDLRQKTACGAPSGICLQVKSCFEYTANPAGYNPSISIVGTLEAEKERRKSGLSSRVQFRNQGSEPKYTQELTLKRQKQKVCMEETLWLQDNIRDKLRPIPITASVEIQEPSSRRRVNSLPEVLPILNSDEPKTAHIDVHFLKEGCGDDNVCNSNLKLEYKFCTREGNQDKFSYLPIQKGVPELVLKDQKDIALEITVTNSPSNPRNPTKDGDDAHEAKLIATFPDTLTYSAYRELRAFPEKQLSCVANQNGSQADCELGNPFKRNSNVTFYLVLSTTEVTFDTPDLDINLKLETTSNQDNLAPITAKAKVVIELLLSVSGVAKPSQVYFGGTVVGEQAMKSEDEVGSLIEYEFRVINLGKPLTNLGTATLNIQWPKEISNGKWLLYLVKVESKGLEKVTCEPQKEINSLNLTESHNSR
T1 sequence (P23229 942-1050 limits assumed): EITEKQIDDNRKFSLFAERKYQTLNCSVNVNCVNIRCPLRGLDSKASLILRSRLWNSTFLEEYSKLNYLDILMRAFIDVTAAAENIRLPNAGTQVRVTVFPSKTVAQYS
T1 sequence (P16144 28-710 partner limits assumed): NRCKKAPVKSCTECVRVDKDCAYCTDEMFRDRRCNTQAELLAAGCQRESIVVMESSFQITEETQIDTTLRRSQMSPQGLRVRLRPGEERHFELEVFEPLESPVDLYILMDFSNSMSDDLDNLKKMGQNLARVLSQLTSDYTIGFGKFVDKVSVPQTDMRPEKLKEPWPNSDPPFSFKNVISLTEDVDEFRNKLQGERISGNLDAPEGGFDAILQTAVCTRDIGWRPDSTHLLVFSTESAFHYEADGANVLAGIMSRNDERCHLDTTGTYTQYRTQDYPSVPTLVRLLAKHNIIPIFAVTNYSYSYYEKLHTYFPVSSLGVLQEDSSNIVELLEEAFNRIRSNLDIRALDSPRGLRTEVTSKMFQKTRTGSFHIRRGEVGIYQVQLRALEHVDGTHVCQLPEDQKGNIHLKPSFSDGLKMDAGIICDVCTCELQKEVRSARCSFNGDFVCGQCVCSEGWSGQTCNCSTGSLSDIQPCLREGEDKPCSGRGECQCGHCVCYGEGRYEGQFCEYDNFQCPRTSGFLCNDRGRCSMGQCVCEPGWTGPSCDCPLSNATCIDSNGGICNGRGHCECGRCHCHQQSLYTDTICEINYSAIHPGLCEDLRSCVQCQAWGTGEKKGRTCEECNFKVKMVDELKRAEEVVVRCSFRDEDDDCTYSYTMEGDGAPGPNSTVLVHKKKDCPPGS
Protocol: (§4) The affinity between these 18 polypeptides and integrin α6β4 was detected by microscale thermophoresis (MST) method as follows: • 1) Integrin α6β4 protein was dissolved to 800 nM, and polypeptide was dissolved to 100 μM. • 2) A RED-tris-NTA second-generation dye was diluted to 100 nM by using the MO series RED-tris-NTA protein labeling kit. • 3) 100 μl α6β4 protein was mixed with 50 μl dye and incubated at room temperature for 30 min, so that the α6β4 protein binds to the dye. • 4) 10 μl polypeptide was transferred into a PCR tube, and was diluted with PBST (containing 0.05% Tween 20) at a ratio of 1:1 to 16 gradients of concentrations. • 5) 3 μl protein/dye mixture was transferred into a PCR tube, 3 μl of 16 different concentrations of polypeptides was respectively added and mixed well. • 6) The mixture was absorbed by capillary and loaded on machine (instrument model Monolith NT.115) to assay, parameters were set as 80% LED/excitation power and medium MST power. • 7) MO. Affinity Analysis software was used to calculate the equilibrium dissociation constant KD between α6β4 protein and polypeptide by KD fitting mode.

[8] = tested on: Hep3B subcutaneous tumors without expression of integrin α6; test: Near infrared imaging of Hep3B subcutaneous tumors; type: in vivo, mice
[9] = tested on: HCCLM3 subcutaneous tumors with high integrin α6 expression; test: Near infrared imaging of HCCLM3 subcutaneous tumor bearing mice; type: in vivo; details: tail vein, 24 hours
Protocol: as §3

integrin α6β4 [10] = target: T2, integrin α6β4 (Homo sapiens, UniProt P16144+P23229); test: Microscale thermophoresis (MST) affinity to integrin α6β4; type: binding; details: MST
T2 sequence (P23229 24-1050 limits assumed): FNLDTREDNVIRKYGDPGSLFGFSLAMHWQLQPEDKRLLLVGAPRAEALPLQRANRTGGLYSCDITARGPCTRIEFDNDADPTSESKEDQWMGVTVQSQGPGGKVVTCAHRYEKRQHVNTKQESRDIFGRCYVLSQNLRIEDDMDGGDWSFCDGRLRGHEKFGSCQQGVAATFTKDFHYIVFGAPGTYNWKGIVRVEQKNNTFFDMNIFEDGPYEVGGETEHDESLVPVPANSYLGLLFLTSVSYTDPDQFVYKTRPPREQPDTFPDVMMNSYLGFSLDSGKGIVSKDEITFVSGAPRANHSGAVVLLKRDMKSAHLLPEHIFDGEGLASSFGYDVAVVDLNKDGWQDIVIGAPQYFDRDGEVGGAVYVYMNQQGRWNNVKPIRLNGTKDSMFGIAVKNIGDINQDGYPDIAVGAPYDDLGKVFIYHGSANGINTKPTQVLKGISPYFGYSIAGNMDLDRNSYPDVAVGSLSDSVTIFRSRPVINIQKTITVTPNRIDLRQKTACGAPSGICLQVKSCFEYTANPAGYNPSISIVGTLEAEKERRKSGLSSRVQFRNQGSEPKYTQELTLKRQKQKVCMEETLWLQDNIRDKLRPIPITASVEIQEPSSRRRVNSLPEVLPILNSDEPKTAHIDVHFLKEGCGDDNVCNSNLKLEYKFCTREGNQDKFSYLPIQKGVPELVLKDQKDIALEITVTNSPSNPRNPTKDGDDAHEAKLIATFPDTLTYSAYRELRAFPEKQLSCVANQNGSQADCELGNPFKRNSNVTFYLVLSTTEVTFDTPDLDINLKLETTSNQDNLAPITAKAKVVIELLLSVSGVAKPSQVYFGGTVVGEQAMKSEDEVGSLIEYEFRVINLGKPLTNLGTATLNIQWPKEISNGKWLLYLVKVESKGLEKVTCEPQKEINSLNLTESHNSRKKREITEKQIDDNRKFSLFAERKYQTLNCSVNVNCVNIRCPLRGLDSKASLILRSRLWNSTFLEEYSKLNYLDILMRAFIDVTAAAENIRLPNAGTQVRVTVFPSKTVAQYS
T2 sequence (P16144 28-710 partner limits assumed): T1 sequence (P16144 28-710 partner limits assumed)
Protocol: as §4

integrin α6β4 [11] = target: T3, integrin α6β4 (Homo sapiens, UniProt P23229); test: as above; type: binding
T3 sequence (P23229 24-1050 limits assumed): T2 sequence (P23229 24-1050 limits assumed)
T3 sequence (P16144 28-710 partner limits assumed): T1 sequence (P16144 28-710 partner limits assumed)
Protocol: as §4

integrin α6β1 = integrin α6β1 (Homo sapiens, UniProt P05556+P23229); test: MST affinity to integrin α6β1; type: binding
Chain of integrin α6β1 (P05556 21-728 partner limits assumed, one chain of several): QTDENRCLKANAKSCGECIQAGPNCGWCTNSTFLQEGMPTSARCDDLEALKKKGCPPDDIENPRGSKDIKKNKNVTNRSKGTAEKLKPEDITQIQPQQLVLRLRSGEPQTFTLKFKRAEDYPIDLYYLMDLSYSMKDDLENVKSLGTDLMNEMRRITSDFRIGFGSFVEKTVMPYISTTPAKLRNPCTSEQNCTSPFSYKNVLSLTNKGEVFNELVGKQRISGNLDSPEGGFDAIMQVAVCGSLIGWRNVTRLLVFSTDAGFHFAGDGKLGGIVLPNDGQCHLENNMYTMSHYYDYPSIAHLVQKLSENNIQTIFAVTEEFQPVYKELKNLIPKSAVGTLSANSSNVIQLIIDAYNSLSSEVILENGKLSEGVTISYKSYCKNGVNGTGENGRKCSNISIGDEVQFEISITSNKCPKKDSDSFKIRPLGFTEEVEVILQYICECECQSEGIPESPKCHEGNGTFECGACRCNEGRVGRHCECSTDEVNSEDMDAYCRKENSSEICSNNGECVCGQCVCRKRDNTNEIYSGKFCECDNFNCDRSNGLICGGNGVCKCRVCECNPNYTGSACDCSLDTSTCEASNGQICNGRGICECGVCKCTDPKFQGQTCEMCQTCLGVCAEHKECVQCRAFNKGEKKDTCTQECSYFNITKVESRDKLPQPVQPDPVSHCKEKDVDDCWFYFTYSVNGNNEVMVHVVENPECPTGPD

Compound: RWYD-PEG4-K-FITC [RD] [listing 1 of 2 here]
affinity to Hep3B cells (Hep3B cells [1]): consistent with Hep3B cells | affinity to tumor cells [2]: stronger affinity to tumor cells with high integrin α6 expression than RWY

Compound: (RWYD-PEG4)2-K-K-FITC (not fully specified) [FITC-labeled RWYD dimer]
Affinity to tumor cells with high integrin α6 expression compared with RWYD-PEG4-K-FITC ([3]; HCCLM3, S18, HT29, Huh7, MDA-MB-231, KYSE30, SW620, SW1990): stronger affinity

Compound: RWYD-PEG4-K(ICG)-K(NOTA) [listing 1 of 2 here]
tumor uptake, near infrared imaging [4]: not high taken up by Hep3B subcutaneous tumors | tumor uptake, near infrared imaging [5]: high taken up by HCCLM3 subcutaneous tumors

Compound: CRWYDENAC-PEG4-K-FITC (CRWYDENAC[PEG4′]K-{FITC′}; disulfide 1-9 (inferred)) [reference compound] [listing 1 of 2 here]
Affinity to Hep3B cells, RD versus RWY (Hep3B cells [6]): consistent

Compound: (RWYD-PEG4)2-K-K-FITC (not fully specified) [RD2]
affinity to tumor cells [2]: stronger affinity to tumor cells with high integrin α6 expression

Kd (integrin α6β4 [7]): 64.8 ± 28.2 nM | affinity increase of RWYD-PEG4 dimer over RWYD-PEG4-K-NOTA (integrin α6β4 [7]; NOTA conjugates): about 10 times
Compound: (RWYD-PEG4)2-K-K-NOTA (not fully specified)

Compound: RWYD-PEG4-K(ICG)-K(NOTA) [listing 2 of 2 here]
tumor uptake, near infrared imaging [8]: not high taken up | tumor uptake, near infrared imaging [9]: high taken up

Compound: CRWYDENAC-PEG4-K-FITC (CRWYDENAC[PEG4′]K-{FITC′}; disulfide 1-9 (inferred)) [reference compound] [listing 2 of 2 here]
affinity to Hep3B cells (Hep3B cells [1]): consistent with Hep3B cells

Compound: RWYD-PEG4-K-FITC [RD] [listing 2 of 2 here]
Affinity to Hep3B cells, RD versus RWY (Hep3B cells [6]): consistent | Affinity to tumor cells with high integrin α6 expression compared with RWY ([3]; FITC flow cytometry, HCCLM3, Huh7, S18, MDA-MB-231, 37° C., 2 hours): stronger affinity

Compound: N=C(N)NCCC[C@H](N)C(=O)N[C@@H](Cc1c[nH]c2ccccc12)C(=O)N[C@@H](Cc1ccc(O)cc1)C(=O)N[C@@H](CC(=O)O)C(=O)O [P15, RWYD] (H-RWYD-OH; N-terminus and C-terminus assumed)
Kd (integrin α6β4 [10]; integrin α6β4, determination 1, read-out: KD (um) 1): 20 nM | Kd (integrin α6β4 [10]; integrin α6β4, determination 3, read-out: KD (um) 3): 26 nM | Kd (integrin α6β4 [10]; integrin α6β4, mean of 3, read-out: KD Mean value (μm)): 20 nM | Kd (integrin α6β4 [10]; integrin α6β4, read-out: KD): 21.8 ± 3.86 nM | Affinity increase relative to CRWYDENAC (integrin α6β4 [11]; integrin α6β4): 327 times | Affinity relative to RWY (integrin α6β4 [11]; relative to CRWYDENAC (RWY) = 1.00): 326.875 | Kd (integrin α6β1): 53.1 ± 28.7 nM
